# Measurements published in patent US6256527A, “Method for determining oxygen concentration” (Nycomed Imaging AS, priority 1995, dated 2001).
# Experiments:
# Assay type in all cases: physicochemical
# [1] = DNP (Overhauser) enhancement and DNP-curve relaxivity at infinite concentration and power; settings: water
# Source text: The calibration data are generated by determining Overhauser enhancement values for the radical in the selected body fluid, at the selected temperature and at a range of oxygen (and preferably also radical) concentrations. The intrinsic esr relaxation times for the radical can be determined, under the same conditions, using a conventional esr spectrometer equipped with a temperature controller, with oxygen concentration being determined using the method of Ravin et al J. Appl. Physiol. 18:784-790(1964), a method known to produce accurate and reproducible results.
# (§1) The following four water soluble, single ESR line trityls were investigated by NMRD, Dynamic Nuclear Polarisation (DNP) and ESR (Examples 1-4).
# (§2) The relaxivity and DNP enhancement data were measured in water, plasma and blood at 23° C. and 37° C. The results are set out in Tables 1 and 2.
# [2] = Relaxivity from NMRD profiles in water, plasma and blood; settings: water
# Method: as §1, §2
# [3] = Electron spin relaxation rates (radical concentration dependent) from CW ESR spectra and DNP data; settings: water (isotonic saline)
# Method: as §1
# Electron spin relaxation rates were measured by analysis of CW ESR spectra and DNP data at 23° C. and 37° C. in water, isotonic saline, plasma and blood for the deuterated hydroxy trityl and in water and isotonic saline for the perdeuterated and symmetric trityl.
substance,measurement,setting,value
"Tris-(8-sodium carboxylate-2,2,6,6-tetrakis-(^2 H3 -methyl)-benzo[1,2-d:4,5-d']-bis(1,3) dithiole)methyl [symmetric trityl]",A. (enhancement at infinite concentration and power),[1],266
same,Relaxivity,[2]; 23° C.,0.21 mM⁻¹ s⁻¹
same,Relaxivity,[2]; 37° C.,0.15 mM⁻¹ s⁻¹
same,"2(3γe T1e)^-1, concentration dependent relaxation rate (peak-to-peak)",[3]; 23° C.,13.2 ± 0.5 mg/mM
same,"2(3γe T2e)^-1, concentration dependent relaxation rate (peak-to-peak)",[3]; 23° C.,35.4 ± 0.6 mg/mM
same,"2(3γe T1e)^-1, concentration dependent relaxation rate (peak-to-peak)",[3]; 37° C.,17.7 ± 0.8 mg/mM
same,"2(3γe T2e)^-1, concentration dependent relaxation rate (peak-to-peak)",[3]; 37° C.,33.1 ± 0.3 mg/mM
